Measured values from patent US9464291B2, “Methods and compositions for the treatment of cancer” (University of South Alabama, priority 2012, dated 2016).
“And” between values parts separate entries of the source, which are not always exact repeats. Equal entries are not always repeated. “Also recorded” adds a separate entry of the source. Where two headings read alike, the source gives them in different places.

Experiments:
[1] = system: c-jun (Ser 63, Ser 73, Thr 91, Thr 93); conditions: A2780-CP70; 3-5 hr after cisplatin treatment; cited from earlier work
[2] = system: ERCC1, XPD, XRCC1; conditions: cells treated with cisplatin only; cited from earlier work
[3] = system: ERCC1, XPD, XRCC1; assay: ERCC1, XPD, XRCC1 mRNA / protein levels in A2780-CP70 cells; type: cell-based, human
[4] = system: c-jun; assay: c-jun mRNA (semi-quantitative PCR) and protein (Western blot) in A2780-CP70 cells; type: cell-based, human; conditions: A2780-CP70
Experimental: Controls included α-tubulin and histone deacetylase 3. C-jun antibody recognizes non-phosphorylated c-jun protein.
c-jun and c-fos mRNA expression was examined in A2780-CP70 cells transfected with anti-GLI1 shRNA construct at 6 hr, 24 hr, 48 hr, and 72 hr post-transfection using semi-quantative PCR analysis (FIG. 41).
A2780-CP70 cells were transfected with an IC50 dose of anti-Gli1 shRNA (treated) construct or vector (control). Total intracellular c-jun mRNA and c-jun protein was measured at 6 hr, 24 hr, 48 hr, and 72 hr.
C-jun mRNA and protein levels were further examined in cisplatin-resistant A2780-CP70 cells treated with an IC50 dose of anti-Gli1 shRNA. FIG. 78 depicts mRNA levels (panel A) and protein levels (panel B) in cells at 6, 24, 48, and 72 hours post-treatment.

[5] = system: A2780-CP70 cells; assay: Cisplatin cell growth / cell killing curves in A2780-CP70 cells; type: cell-based, human; conditions: cisplatin alone (lipofectamine only / control cells)
Experimental: A2780-CP70 cells were transfected with 0.07 μg/well anti-Gli1 shRNA construct or control. Transfected cells were treated with 0 μM, 10 μM, 30 μM, and 100 μM cisplatin at 24 hr post-transfection. Percent cell growth was determined relative to control cells. […] In another experiment, A2780-CP70 cells were transfected with 0.02 μg/well or 0.07 μg/well anti-Gli1 shRNA construct. Transfected cells were treated with 0 μM, 2 μM, 5 μM, 10 μM, 30 μM, and 50 μM cisplatin at 24 hr post-transfection. Percent cell growth was determined relative to control cells (FIG. 52B).
Control cells were treated with cisplatin only. Percent cell growth was determined relative to control cells.

[6] = system: A2780-CP70 cells; conditions: cisplatin-resistant A2780-CP70; cited from earlier work
[7] = system: c-jun (Ser 63, Ser 73, Thr 91, Thr 93); assay: c-jun protein phosphorylation, Western blot, A2780-CP70 cells; type: cell-based, human; conditions: 72 hr observation
Experimental: Protein levels for c-jun, c-fos, phosphorylated c-jun (Ser 63), phosphorylated c-jun (Ser 73), and phosphorylated c-jun (Thr 91, Thr 93) were tested in cytosolic, nuclear, and whole cell fractions at 0 hr, 6 hr, 24 hr, 48 hr, and 72 hr. Internal controls for cytosolic and nuclear fractions included α-tubulin and histone deacetylase 3.
Phosphorylation of c-jun in A2780-CP70 cells transfected with anti-GLI1 shRNA construct was assessed using Western blot analysis. Protein levels for c-jun, phosphorylated c-jun (Ser 63), phosphorylated c-jun (Ser 73), and phosphorylated c-jun (Thr 91, Thr 93) were examined at 0 hr, 6 hr, 24 hr, 48 hr, and 72 hr.
A2780-CP70 cells were treated with an IC50 dose of cisplatin and an IC50 dose of anti-Gli1 shRNA.

For `N.N.[Cl][Pt][Cl]` [cisplatin], which “peak c-jun phosphorylation over baseline” value [1] is on record?
Its value is 15 fold.

What about the “expected increase in ERCC1 mRNA levels” value [2] of the same molecule?
Its value is 6 fold.

And the “time of highest ERCC1, XPD, XRCC1 mRNA levels after cisplatin exposure” value ([3]; A2780-CP70, cyclopamine pretreatment vs cisplatin alone)?
Its value is 4 to 6 h.

And the “increase of ERCC1, XPD, and XRCC1 protein expression levels” value ([3]; cells treated with cisplatin)?
Its value is 5 fold.

And the “expected rise of ERCC1 (as would XPD and XRCC1)” value ([3]; cisplatin alone (unpublished data))?
Its value is “more than 6 fold”.

What about the “time of peak c-jun level” value ([4]; IC50 dose of agent) of the same molecule?
The value was 6 h.

What about the c-jun protein expression ([4]; IC50 dose of cisplatin) of the same molecule?
Its c-jun protein expression is “increased substantial”.

And the IC50 [5]?
The IC50 was 30 µM and 28 µM.

What about the IC50 [6] of the same molecule?
The IC50 was roughly 40 µM.

And the “c-jun phosphorylation at Ser63” value [7]?
The value was “increases specifically at Ser63 and Ser73”.

And the “c-jun phosphorylation at Thr91/93” value [7]?
The value was “do not change significantly; also recorded: did not significantly change”.
